tested on: MDCK cells; test: HGF-induced epithelial-mesenchymal transition / migration of MDCK cells on transwell filters (crystal violet densitometry); assay type: cell-based; settings: Canis lupus familiaris, MDCK, 24 h, Table 3, 10 μM compound, then HGF, percentage like untreated controls (unstimulated cells = maximal effect, HGF only = nil)
Experimental: MDCK cells were seeded at confluency into the wells of a transwell filter in DMEM with 10% fetal bovine serum. Cells were cultured for 24 hours. Test compounds, dissolved in DMSO, were added to each test well to a 10 μM final concentration, and then hepatocyte growth factor (HGF) was then added. The MDCK cells were cultured for 24 hours. Concurrently, controls treated with and without HGF and with no test compounds were also prepared.
After post-HGF addition culturing, transwell filters were prepared by repeated washing using ice cold PBS. The cells were then fixed with paraformaldehyde (3.7%) on ice for 15 minutes to the filters. After fixation, the transwell filters were washed repeatedly with PBS followed by staining with crystal violet for 15 minutes. The transwell filters were washed again with distilled water.
The upper surface of the transwell filters were swabbed using a cotton-tipped probe. The filters were photographed using a gel documentation system. Densitometry measurements were made on the test samples and compared with control samples.

Structure (SMILES)	inhibition at 10 µM
NC(=O)c1ccccc1/N=C/c1cccc(Cl)c1Cl [Compound A-1]	94%
NC(=O)c1ccccc1/N=C/c1ccccc1Cl [Compound A-2]	75.7%
NC(=O)c1ccccc1/N=C/c1cccc2ccccc12 [Compound A-3]	87.8%
COc1cccc(/C=N/c2ccccc2C(N)=O)c1O [Compound A-4]	20.9%
NC(=O)c1ccccc1/N=C/c1cccc(O)c1O [Compound A-5]	48.8%
NC(=O)c1ccccc1/N=C/c1ccc2ccccc2c1 [Compound A-6]	> 5%
NC(=O)c1ccccc1/N=C/c1ccccc1[N+](=O)[O-] [Compound A-7]	11.7%
NC(=O)c1ccccc1/N=C/c1cccc(O)c1 [Compound A-8]	19.7%
NC(=O)c1ccccc1/N=C/c1cccc(Cl)c1 [Compound A-9]	96.4%
Cc1ccc(/C=N/c2ccccc2C(N)=O)s1 [Compound A-10]	91.8%
NC(=O)c1ccccc1/N=C/c1ccco1 [Compound A-11]	27.9%
NC(=O)c1ccccc1/N=C/c1ccc(Br)s1 [Compound A-12]	17.5%
Cc1ccc(/C=N/c2ccccc2C(N)=O)o1 [Compound A-13]	11.2%
CC(C)c1ccc(/C=N/c2ccccc2C(N)=O)cc1 [Compound A-14]	< 5%
COc1ccc(/C=N/c2ccccc2C(N)=O)cc1 [Compound A-15]	< 5%
NC(=O)c1ccccc1/N=C/c1ccc(Cl)cc1Cl [Compound A-18]	< 5%
COc1cc(CNc2ccc(C)c(Cl)c2)cc(Br)c1OC [Compound A-19]	> 5%
COc1cc(CNc2cc(C(=O)O)ccc2C)cc(Br)c1OC [Compound A-22]	33.1%
COc1cc(CNc2ccc(N3CCOCC3)cc2)cc(Br)c1OC [Compound A-23]	31.9%
COc1cc(CNc2ccc(N3CCOCC3)c(C(=O)O)c2)cc(Br)c1OC [Compound A-25]	< 5%

same assay, conditions: Canis lupus familiaris, MDCK, 24 h, Table 4, 10 μM compound, then HGF, percentage like untreated controls (unstimulated cells = maximal effect, HGF only = nil)

Structure (SMILES)	inhibition at 10 µM
Cc1nc(NC(=O)COc2ccc([N+](=O)[O-])cc2)ccc1I [Compound B-2]	96.9%
Cc1nc(NC(=O)c2cccc([N+](=O)[O-])c2)ccc1I [Compound B-3]	95.9%
Cc1nc(NC(=O)c2cc([N+](=O)[O-])ccc2N2CCOCC2)ccc1I [Compound B-4]	31.7%
Cc1nc(NC(=O)c2ccc(N3CCCC3)c([N+](=O)[O-])c2)ccc1I [Compound B-5]	44%
Cc1nc(NC(=O)c2cccc([N+](=O)[O-])c2)ccc1Br [Compound B-6]	88.6%
Cc1cc(C)nc(NC(=O)c2cccc([N+](=O)[O-])c2)c1 [Compound B-7]	52.5%
O=C(Nc1ccccn1)c1cccc([N+](=O)[O-])c1 [Compound B-8]	45.3%
CCOc1ccc(C(=O)Nc2cccc(C)n2)cc1[N+](=O)[O-] [Compound B-9]	34.6%
CCOc1ccc(C(=O)Nc2ccc(I)cn2)cc1[N+](=O)[O-] [Compound B-10]	69.9%
COc1ccc(C(=O)Nc2cccc(C)n2)cc1[N+](=O)[O-] [Compound B-11]	< 5%
O=C(Nc1ncc(Br)cc1Br)c1cccc([N+](=O)[O-])c1 [Compound B-12]	42.4%

same assay, conditions: Canis lupus familiaris, MDCK, 24 h, Table 5, 10 μM compound, then HGF, percentage like untreated controls (unstimulated cells = maximal effect, HGF only = nil)

Structure (SMILES)	inhibition at 10 µM
O=C(Nc1cccc([N+](=O)[O-])c1)c1ccc(-c2ccccc2)cc1 [Compound B-15]	31.6%
CC(=O)c1cccc(NC(=O)c2ccc(-c3ccccc3)cc2)c1 [Compound B-16]	> 5%
Cc1cccc(NC(=O)c2ccc(-c3ccccc3)cc2)c1 [Compound B-17]	30.2%
O=C(Nc1cccc(C(=O)c2ccccc2)c1)c1ccc(-c2ccccc2)cc1 [Compound B-18]	93.8%
O=C(Nc1cccc(Cl)c1)c1ccc(-c2ccccc2)cc1 [Compound B-19]	93.2%
NC(=O)c1cccc(NC(=O)c2ccc(-c3ccccc3)cc2)c1 [Compound B-20]	20.6%
O=C(Nc1cccc(C(=O)N2CCOCC2)c1)c1ccc(-c2ccccc2)cc1 [Compound B-21]	27.2%
COc1cc(C(=O)Nc2ccc(N(C)C)cc2)cc(OC)c1OC [Compound B-22]	> 5%
CCC(=O)Nc1ccc(NC(=O)c2cc(OC)c(OC)c(OC)c2)cc1 [Compound B-23]	29.4%
COc1cc(C(=O)Nc2ccc(N3CCCC3=O)cc2)cc(OC)c1OC [Compound B-24]	93.2%
COc1cc(C(=O)Nc2ccc(N3CCCC3)cc2)cc(OC)c1OC [Compound B-25]	94.9%
CCN1CCN(c2ccc(NC(=O)c3cc(OC)c(OC)c(OC)c3)cc2Cl)CC1 [Compound B-26]	> 5%
COc1cc(C(=O)Nc2ccc(Nc3ccccc3)cc2)cc(OC)c1OC [Compound B-27]	13.7%
COc1cc(C(=O)Nc2ccc(N3CCN(C)CC3)cc2)cc(OC)c1OC [Compound B-28]	13.7%
COc1cc(OC)cc(C(=O)Nc2ccc(N3CCCC3)cc2)c1 [Compound B-29]	26.4%
CCCCOc1ccc(C(=O)Nc2ccc(N3CCCC3=O)cc2)cc1 [Compound B-30]	81.1%
Cc1cc(NC(=O)c2cccc([N+](=O)[O-])c2)ccc1I [Compound B-31]	53.1%
Cc1cc(NC(=O)c2cccc([N+](=O)[O-])c2C)c(C)cc1I [Compound B-32]	36.1%
Cc1cc(NC(=O)c2ccc(C)c([N+](=O)[O-])c2)c(C)cc1I [Compound B-33]	56.9%
COc1ccc(C(=O)c2cc([N+](=O)[O-])ccc2N2CCOCC2)cc1 [Compound B-34]	93.4%
O=[N+]([O-])c1cccc(S(=O)(=O)Nc2ccc(Cl)c(Cl)c2)c1 [Compound B-35]	71.1%
Cc1cccc(NS(=O)(=O)c2cccc([N+](=O)[O-])c2)c1 [Compound B-36]	79.2%
Cc1cc(C)cc(NS(=O)(=O)c2cccc([N+](=O)[O-])c2)c1 [Compound B-37]	79.9%
Cc1cc(C)c(NS(=O)(=O)c2cccc([N+](=O)[O-])c2)c(C)c1 [Compound B-38]	100%
O=[N+]([O-])c1cccc(S(=O)(=O)Nc2ccc(I)cc2)c1 [Compound B-39]	89.3%
COc1cccc(C(=O)Nc2cccc(C(=O)c3ccccc3)c2)c1 [Compound B-40]	93.1%

same assay, conditions: Canis lupus familiaris, MDCK, 24 h, Table 6, 10 μM compound, then HGF, percentage like untreated controls (unstimulated cells = maximal effect, HGF only = nil)

Structure (SMILES)	inhibition at 10 µM
CCOC(=O)c1[nH]c2c(c1C)C(=O)CC(c1cccc(OC)c1)C2 (stereo not drawn) [Compound C-1]	96%
CCOC(=O)c1[nH]c2c(c1C)C(=O)CC(c1cccs1)C2 (stereo not drawn) [Compound C-2]	49.7%
COC(=O)c1[nH]c2c(c1C)C(=O)CC(c1cccs1)C2 (stereo not drawn) [Compound C-3]	84.1%
CCOC(=O)c1[nH]c2c(c1C)C(=O)CC(c1ccco1)C2 (stereo not drawn) [Compound C-4]	62.2%

same assay, conditions: Table 2; 10 μM compound, then HGF, 24 hours; percentage like untreated controls (unstimulated cells = maximal effect, HGF only = nil)

Structure (SMILES)	Assay Value
O=C1CC(c2cc3c(cc2[N+](=O)[O-])OCO3)c2cc3c(cc2N1)CCC3 (stereo not drawn) [Compound 91]	<5%
COc1cccc(C2CC(=O)Nc3cc4c(cc32)CCC4)c1OC (stereo not drawn) [Compound 92]	<5%
O=C1CC(c2cc3c(cc2[N+](=O)[O-])OCO3)c2cc3c(cc2N1)CCC3 (stereo not drawn) [Compound 93]	<5%
O=C1CC(c2ccccc2C(F)(F)F)c2cc3c(cc2N1)CCC3 (stereo not drawn) [Compound 94]	<5%
O=C1CC(c2cccc(Br)c2)c2cc3c(cc2N1)CCC3 (stereo not drawn) [Compound 95]	<5%
O=C1CC(c2cccc(Cl)c2)c2cc3c(cc2N1)CCC3 (stereo not drawn) [Compound 96]	<5%
O=C1CC(c2ccc(Cl)cc2Cl)c2cc3c(cc2N1)CCC3 (stereo not drawn) [Compound 97]	<5%
O=C1CC(c2ccc([N+](=O)[O-])cc2)c2cc3c(cc2N1)CCC3 (stereo not drawn) [Compound 98]	<5%
COc1cccc(C2CC(=O)Nc3cc4c(cc32)CCC4)c1 (stereo not drawn) [Compound 99]	<5%

same assay, conditions: Table 3; 10 μM compound, then HGF, 24 hours; percentage like untreated controls (unstimulated cells = maximal effect, HGF only = nil)

Structure (SMILES)	Assay Value
NC(=O)c1ccccc1/N=C/c1ccc2ccccc2c1 [Compound A-16]	<5%
COc1cc(CNc2ccc(C)c(Cl)c2)cc(I)c1OC [Compound A-20]	81.9%
COc1cc(CNc2ccc(C)c(Cl)c2)cc(Cl)c1OC [Compound A-21]	57.5%
C#CCOc1c(Br)cc(CNc2ccc(Cl)c(Cl)c2)cc1OC [Compound A-24]	16.3%
COc1cc(CNc2ccc(C)c(Cl)c2)cc(Cl)c1OC [Compound A-26]	<5%

same assay, conditions: Table 4; 10 μM compound, then HGF, 24 hours; percentage like untreated controls (unstimulated cells = maximal effect, HGF only = nil)

Structure (SMILES)	Assay Value
Cc1nc(NC(=O)COc2ccc([N+](=O)[O-])cc2)ccc1Br [Compound B-1]	97.1%
Cc1nc(NC(=O)c2ccc(N3CCOCC3)c([N+](=O)[O-])c2)ccc1I [Compound B-13]	29.4%

same assay, conditions: Table 5; 10 μM compound, then HGF, 24 hours; percentage like untreated controls (unstimulated cells = maximal effect, HGF only = nil)

Structure (SMILES)	Assay Value
Cc1cc(NC(=O)c2cccc([N+](=O)[O-])c2)ccc1O [Compound B-14]	34.6%

— patent US20130158035A1, “[…] COMPOUNDS” (Brigham Young University, priority 2010, published 2013)
